Results: PMC7503464 (Molecules, 2020)

What was measured:
Experiment in all cases: biochemical
[1] = biological target: T1, dihydrofolate reductase (DHFR; wt-DHFR and midW mutants) (Escherichia coli, UniProt P0ABQ4, W133F/W22F/W30F/W47F)
T1 construct: gene folA
Excerpt: (§1) isothermal titration calorimetry on dihydrofolate reductase (DHFR; wt-DHFR and midW mutants)

[2] = biological target: T2, dihydrofolate reductase (DHFR; wt-DHFR and midW mutants) (Escherichia coli, UniProt P0ABQ4, W133F/W22F/W47F/W74F)
T2 construct: gene folA
Excerpt: as §1

[3] = biological target: T3, dihydrofolate reductase (DHFR; wt-DHFR and midW mutants) (Escherichia coli, UniProt P0ABQ4, W133F/W30F/W47F/W74F)
T3 construct: gene folA
Excerpt: as §1

[4] = biological target: T4, dihydrofolate reductase (DHFR; wt-DHFR and midW mutants) (Escherichia coli, UniProt P0ABQ4, W22F/W30F/W47F/W74F)
T4 construct: gene folA
Excerpt: as §1

[5] = biological target: T5, dihydrofolate reductase (DHFR; wt-DHFR and midW mutants) (Escherichia coli, UniProt P0ABQ4, W133F/W22F/W30F/W74F)
T5 construct: gene folA
Excerpt: as §1

**Q.** With `Nc1nc2ncc(CNc3ccc(C(=O)N[C@@H](CCC(=O)O)C(=O)O)cc3)nc2c(=O)[nH]1` [folate] as the compound, how does the Kd [1] read?
**A.** The Kd was 8.4 µM.

**Q.** What about the Kd [2] of the same compound?
**A.** Its Kd is 4.5 µM.

**Q.** What about the Kd [3] of the same compound?
**A.** Its Kd is 3.7 µM.

**Q.** And the Kd [4]?
**A.** Its Kd is 9.5 µM.

**Q.** What about the Kd [5] of the same compound?
**A.** The Kd was 12 µM.
